Tested on: Chikungunya virus
Test: Observational study of mequitazine in preventive and early treatment of inflammatory syndromes caused by the Chikungunya virus
Type: in vivo
Details: patients
Experimental: Effect of Mequitazine on the Preventive and Early Treatment of Inflammatory Syndromes Caused by the Chikungunya Virus—Results of an Observational Study
104 patients were included in this observational study involving a limited number of doctors held secret: mean age 39.6 years, 61.9% female.
At the time of inclusion at D0, the patients were slightly feverish with a mean temperature of 38.4° C.
The patients consulted after various periods following the onset of hyperthermia, but generally 1.1 days after this onset, the phase preceding the onset of arthralgia.
During this first visit, the most painful joints were the fingers, wrists and ankles.
At this first visit on D0, the doctors gave mequitazine to the patients, possibly in combination with an anti-inflammatory.
A questionnaire was handed to each patient and completed with the patient.
This questionnaire included the content of 2 conventional questionnaires: • HAQ* questionnaire (Health Assessment Questionnaire) to assess the functional capacity of patients (function index) i.e. the handicap generated by the pathology; • A SF12** questionnaire to assess the quality of life of the patient using the SF12 score.
At D7 and D14 the patient again filled in these questionnaires.
At D28, at the time of a further consultation, these questionnaires were again updated. • HAQ: Bruce B and Fries J. The Stanford Health Assessment Questionnaire (HAQ): A review of its history, issues, progress and documentation. J. Rheumatol. 2003; 30(1):167-78. • SF12: Ware J Jr, Kosinski M, Keller S D. A 12-item Short-Form Health Survey: construction of scales and preliminary tests of reliability and validity. Med. Care 1996; 34:220-33.

c1ccc2c(c1)Sc1ccccc1N2CC1CN2CCC1CC2 (centres unmarked) [mequitazine]
handicap generated by the pathology (HAQ function index) (at D14, mequitazine given at D0): statistically significant improvement | handicap generated by the pathology (HAQ function index) (at D28, mequitazine given at D0): statistically significant improvement | number of painful joints (between D0 and D7, decrease continuing in time): significant decrease | influence of combining an anti-inflammatory with mequitazine on the SF12 physical score measuring quality of life (mequitazine combined with an anti-inflammatory): does not have an influence | physical recovery (SF12 scale and HAQ test) in relation to how early mequitazine is prescribed (the earlier a patient consults and mequitazine is prescribed): the more physical recovery is swift and extensive
